From patent publication US6472348B1, “Pyridone derivatives and herbicides” (Kumiai Chemical Industry Co., Ltd., priority 1996, dated 2002)

Legend:
slender amaranth (Am) [1] = assay: Test Example 3: herbicidal effects by upland field foliage treatment; assay type: in vivo; design: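 grade of growth control; 5 = at least 90%; 4 = 70 to 90%; 3 = 50 to 70%; 2 = 30 to 50%; 1 = 10 to 30%; 0 = under 10%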
Summary of the method: (§1)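 Scores reflect herbicidal effect graded by standards on the 14th day after foliage treatment of weeds grown 2 weeks in a greenhouse.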

Diaitaria ciliaris (Di) = assay: as above; assay type: in vivo; design: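 grade of growth control; 5 = at least 90%; 4 = 70 to 90%; 3 = 50 to 70%; 2 = 30 to 50%; 1 = 10 to 30%; 0 = under 10%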
Summary of the method: as §1

barnyardgrass (Ec) [2] = assay: as above; assay type: in vivo; design: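 grade of growth control; 5 = at least 90%; 4 = 70 to 90%; 3 = 50 to 70%; 2 = 30 to 50%; 1 = 10 to 30%; 0 = under 10%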
Summary of the method: as §1

pale smartweed (Po) [3] = assay: as above; assay type: in vivo; design: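 grade of growth control; 5 = at least 90%; 4 = 70 to 90%; 3 = 50 to 70%; 2 = 30 to 50%; 1 = 10 to 30%; 0 = under 10%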
Summary of the method: as §1

[4] = test system: common lambsquarters (Ch); assay: as above; assay type: in vivo; design: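 grade of growth control; 5 = at least 90%; 4 = 70 to 90%; 3 = 50 to 70%; 2 = 30 to 50%; 1 = 10 to 30%; 0 = under 10%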
Summary of the method: as §1

rice flatsedge (Ci) [5] = assay: as above; assay type: in vivo; design: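 grade of growth control; 5 = at least 90%; 4 = 70 to 90%; 3 = 50 to 70%; 2 = 30 to 50%; 1 = 10 to 30%; 0 = under 10%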
Summary of the method: as §1

China jute (Ab) = assay: Test Example 9: crop plant selectivity by upland field foliage treatment (wheat), herbicidal effects; assay type: in vivo; design: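 grade of growth control; 5 = at least 90%; 4 = 70 to 90%; 3 = 50 to 70%; 2 = 30 to 50%; 1 = 10 to 30%; 0 = under 10%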; details: dose 1.6 g ai/10a, 14th day after treatment
Procedure: (§2) (Test on Crop Plant Selectivity by Upland Field Foliage Treatment)
(§3) In a plastic pot (surface area: 600 cm^2) filled with sand, wheat (Tr), pale smartweed (Po), slender amaranth (Am), common lambsquarters (Ch) and China jute (Ab) were sown and cultured in a green house for 2 weeks. […] The plants were then cultured in a green house, and the evaluation of the herbicidal effects and phytotoxicity was conducted on the 14th day after the treatment in accordance with the standards as identified in Table 47.

slender amaranth (Am) [6] = assay: as above; assay type: in vivo; design: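 grade of growth control; 5 = at least 90%; 4 = 70 to 90%; 3 = 50 to 70%; 2 = 30 to 50%; 1 = 10 to 30%; 0 = under 10%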; details: dose 1.6 g ai/10a, 14th day after treatment
Procedure: as §2, §3

pale smartweed (Po) [7] = assay: as above; assay type: in vivo; design: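 grade of growth control; 5 = at least 90%; 4 = 70 to 90%; 3 = 50 to 70%; 2 = 30 to 50%; 1 = 10 to 30%; 0 = under 10%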; details: dose 1.6 g ai/10a, 14th day after treatment
Procedure: as §2, §3

[8] = test system: common lambsquarters (Ch); assay: as above; assay type: in vivo; design: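 grade of growth control; 5 = at least 90%; 4 = 70 to 90%; 3 = 50 to 70%; 2 = 30 to 50%; 1 = 10 to 30%; 0 = under 10%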; details: dose 1.6 g ai/10a, 14th day after treatment
Procedure: as §2, §3

monochoria (Mo) = assay: Test Example 1: herbicidal effects by paddy field soil treatment; assay type: in vivo; details: 100 g of the active ingredient per 10 ares, 21st day after the application, index 0-5 of Table 47;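 note: grade of growth control; 5 = at least 90%; 4 = 70 to 90%; 3 = 50 to 70%; 2 = 30 to 50%; 1 = 10 to 30%; 0 = under 10%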
Summary of the method: (§4)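 Greenhouse pot test in flooded paddy soil, dosed at 100 g a.i. per 10 ares; effect scored on day 21.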

barnyardgrass (Ec) [9] = assay: as above; assay type: in vivo; details: 100 g of the active ingredient per 10 ares, 21st day after the application, index 0-5 of Table 47
Summary of the method: as §4

bulrush (Sc) = assay: as above; assay type: in vivo; details: 100 g of the active ingredient per 10 ares, 21st day after the application, index 0-5 of Table 47;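 note: grade of growth control; 5 = at least 90%; 4 = 70 to 90%; 3 = 50 to 70%; 2 = 30 to 50%; 1 = 10 to 30%; 0 = under 10%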
Summary of the method: as §4

wheat (Tr) = assay: Test Example 9: crop plant selectivity by upland field foliage treatment (wheat), phytotoxicity; details: dose 1.6 g ai/10a, 14th day after treatment;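 note: grade of crop injury; 5 = at least 90%; 4 = 70 to 90%; 3 = 50 to 70%; 2 = 30 to 50%; 1 = 10 to 30%; 0 = under 10%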
Procedure: as §2, §3

slender amaranth (Am) [10] = assay: Test Example 2: herbicidal effects by upland field soil treatment; assay type: in vivo; details: 100 g of the active ingredient per 10 ares;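 note: grade of growth control; 5 = at least 90%; 4 = 70 to 90%; 3 = 50 to 70%; 2 = 30 to 50%; 1 = 10 to 30%; 0 = under 10%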
Excerpt: (§5) (Test on Herbicidal Effects by Upland Field Soil Treatment)

barnyardgrass (Ec) [11] = assay: as above; assay type: in vivo; details: 100 g of the active ingredient per 10 ares
Excerpt: as §5

pale smartweed (Po) [12] = assay: as above; assay type: in vivo; details: 100 g of the active ingredient per 10 ares
Excerpt: as §5

Digitaria ciliaris (Di) = assay: as above; assay type: in vivo; details: 100 g of the active ingredient per 10 ares
Excerpt: as §5

[13] = test system: common lambsquarters (Ch); assay: as above; assay type: in vivo; details: 100 g of the active ingredient per 10 ares
Excerpt: as §5

rice flatsedge (Ci) [14] = assay: as above; assay type: in vivo; details: 100 g of the active ingredient per 10 ares
Excerpt: as §5

[15] = 100 g of the active ingredient per 10 ares, evaluated on the 14th day after treatment
[16] = 21st day after the application, index 0-5 of Table 47
[17] = 100 g active ingredient per 10 ares, evaluated 14th day after treatment
[18] = evaluated on the 21st day after application

Structure (SMILES)	Herbicidal effects Am (slender amaranth (Am) [1]; [15])	Herbicidal effects Di (Diaitaria ciliaris (Di); [15])	Herbicidal effects Ec (barnyardgrass (Ec) [2]; [15])	Herbicidal effects Po (pale smartweed (Po) [3]; [15])	Herbicidal effects Ch [4, 15]	Herbicidal effects Ci (rice flatsedge (Ci) [5]; [15])	Herbicidal effects Mo (monochoria (Mo))	Herbicidal effects Ec (barnyardgrass (Ec) [9])	Herbicidal effects Sc (bulrush (Sc))	Herbicidal effects Am (slender amaranth (Am) [10]; [16])	Herbicidal effects Ec (barnyardgrass (Ec) [11]; [16])	Herbicidal effects Po (pale smartweed (Po) [12]; [16])	Herbicidal effects Di (Digitaria ciliaris (Di); [16])	Herbicidal effects Ch [13, 16]	Herbicidal effects Ci (rice flatsedge (Ci) [14]; [16])	Herbicidal effects Am (slender amaranth (Am) [10]; [18])	Herbicidal effects Ec (barnyardgrass (Ec) [11]; [18])	Herbicidal effects Po (pale smartweed (Po) [12]; [18])	Herbicidal effects Di (Digitaria ciliaris (Di); [18])	Herbicidal effects Ch [13, 18]	further results
CCCC(Sc1cc(-c2ccc(C(F)(F)F)n(C)c2=O)c(F)cc1Cl)C(=O)OCC (stereo not shown) [1-48]	5	5	5	5	5	5	5	5	5	–	–	–	–	–	–	–	–	–	–	–	Herbicidal effects Ab (China jute (Ab)): 5; Herbicidal effects Am (slender amaranth (Am) [6]): 5; Herbicidal effects Po (pale smartweed (Po) [7]): 5; Herbicidal effects Ch [8]: 5; Phytotoxicity Tr (wheat (Tr)): 2
CCC(OC)c1cc2c(-c3ccc(C(F)(F)F)n(C)c3=O)c(F)cc(Cl)c2o1 (stereo not shown) [Compound 4-39]	–	–	–	–	–	–	–	–	–	–	–	–	–	–	–	–	–	–	–	–	Herbicidal effects Ab (China jute (Ab)): 5; Herbicidal effects Am (slender amaranth (Am) [6]): 5; Herbicidal effects Po (pale smartweed (Po) [7]): 5; Herbicidal effects Ch [8]: 5; Phytotoxicity Tr (wheat (Tr)): 2
CC(C)Sc1cc(-c2ccc(C(F)(F)F)n(C)c2=O)c(Cl)cc1Cl [1-51]	5	5	4	5	5	5	5	5	5	5	4	5	5	5	5	–	–	–	–	–	–
Cn1c(C(F)(F)F)ccc(-c2cc(C=NO)c(Cl)cc2F)c1=O [1-164]	5	5	5	5	5	5	5	5	5	5	5	5	5	5	5	–	–	–	–	–	–
C#CCNC(=O)COc1cc(-c2ccc(C(F)(F)F)n(C)c2=O)c(F)cc1Cl [Compound 1-210]	–	–	–	–	–	–	5	5	5	–	–	–	–	–	–	5	5	5	4	5	Herbicidal effects Am (slender amaranth (Am) [1]; [17]): 5; Herbicidal effects Di (Diaitaria ciliaris (Di); [17]): 5; Herbicidal effects Ec (barnyardgrass (Ec) [2]; [17]): 4; Herbicidal effects Po (pale smartweed (Po) [3]; [17]): 5; Herbicidal effects Ch [4, 17]: 5; Herbicidal effects Ci (rice flatsedge (Ci) [5]; [17]): 5; Herbicidal effects Ci (rice flatsedge (Ci) [14]; [18]): 5
CC(C)OCCOc1cc(-c2ccc(C(F)(F)F)n(C)c2=O)c(F)cc1Cl [1-169]	5	5	5	5	5	5	5	5	5	–	–	–	–	–	–	5	5	5	5	5	Herbicidal effects Ci (rice flatsedge (Ci) [14]; [18]): 5
C=C(Cl)CN1C(=O)COc2cc(F)c(-c3ccc(C(F)(F)F)n(C)c3=O)cc21 [Compound 2-13]	–	–	–	–	–	–	5	5	5	–	–	–	–	–	–	5	5	5	5	5	Herbicidal effects Am (slender amaranth (Am) [1]; [17]): 5; Herbicidal effects Di (Diaitaria ciliaris (Di); [17]): 5; Herbicidal effects Ec (barnyardgrass (Ec) [2]; [17]): 5; Herbicidal effects Po (pale smartweed (Po) [3]; [17]): 5; Herbicidal effects Ch [4, 17]: 5; Herbicidal effects Ci (rice flatsedge (Ci) [5]; [17]): 5; Herbicidal effects Ci (rice flatsedge (Ci) [14]; [18]): 5
CC(Oc1cc(-c2ccc(C(F)(F)F)n(C)c2=O)c(F)cc1Cl)C1CC1 (stereo not shown) [1-161]	5	5	5	5	5	5	5	5	5	5	5	5	5	5	5	–	–	–	–	–	–
CC(C)=CCOc1cc(-c2ccc(C(F)(F)F)n(C)c2=O)c(F)cc1Cl [1-174]	5	5	5	5	5	5	5	5	5	–	–	–	–	–	–	5	5	5	5	5	Herbicidal effects Ci (rice flatsedge (Ci) [14]; [18]): 5
Cn1c(C(F)(F)F)ccc(-c2cc(C=O)c(Cl)cc2F)c1=O [Compound No. 1-81, 5-[1--methyl-6-trifluoromethyl-2(1H)-pyridon-3-yl]-2-chloro-4-fluorobenzaldehyde]	5	5	5	5	5	5	5	5	5	5	5	5	5	5	5	–	–	–	–	–	–
Cn1c(C(F)(F)F)ccc(-c2cc(C(=O)O)c(Cl)cc2F)c1=O [Compound No. 1-141, 5-(1-methyl-6-trifluoromethyl-2(1H)-pyridon-3-yl)-2-chloro-4-fluorobenzoic acid]	5	5	5	5	5	5	5	5	5	5	4	5	5	5	5	–	–	–	–	–	–
C#CCN1C(=O)COc2ccc(-c3ccc(C(F)(F)F)n(C)c3=O)cc21 [2-29]	–	–	–	–	–	–	5	5	5	–	–	–	–	–	–	5	5	5	5	5	Herbicidal effects Am (slender amaranth (Am) [1]; [17]): 5; Herbicidal effects Di (Diaitaria ciliaris (Di); [17]): 5; Herbicidal effects Ec (barnyardgrass (Ec) [2]; [17]): 5; Herbicidal effects Po (pale smartweed (Po) [3]; [17]): 5; Herbicidal effects Ch [4, 17]: 5; Herbicidal effects Ci (rice flatsedge (Ci) [5]; [17]): 5; Herbicidal effects Ci (rice flatsedge (Ci) [14]; [18]): 5
CCS(=O)(=O)N(C)c1cc(-c2ccc(C(F)(F)F)n(C)c2=O)c(F)cc1Cl [1-140]	5	5	4	5	5	5	5	5	5	5	5	5	5	5	5	–	–	–	–	–	–
Cn1c(C(F)(F)F)ccc(-c2cc(SC3CCCO3)c(Cl)cc2F)c1=O (stereo not shown) [1-165]	5	5	5	5	5	5	5	5	5	5	5	5	5	5	5	–	–	–	–	–	–
CCOCCOc1cc(-c2ccc(C(F)(F)F)n(C)c2=O)c(F)cc1Cl [1-163]	5	5	5	5	5	5	5	5	5	5	5	5	5	5	5	–	–	–	–	–	–
Cc1cc(-c2cc(OC(C)C)c(Cl)cc2F)c(=O)n(C)c1C(F)(F)F [1-80]	5	5	5	5	5	5	5	5	5	5	5	5	5	5	5	–	–	–	–	–	–
Cc1cc2c(-c3ccc(C(F)(F)F)n(C)c3=O)ccc(Cl)c2o1 [Compound 4-24]	–	–	–	–	–	–	5	5	5	–	–	–	–	–	–	5	4	5	5	5	Herbicidal effects Am (slender amaranth (Am) [1]; [17]): 5; Herbicidal effects Di (Diaitaria ciliaris (Di); [17]): 5; Herbicidal effects Ec (barnyardgrass (Ec) [2]; [17]): 4; Herbicidal effects Po (pale smartweed (Po) [3]; [17]): 5; Herbicidal effects Ch [4, 17]: 5; Herbicidal effects Ci (rice flatsedge (Ci) [5]; [17]): 5; Herbicidal effects Ci (rice flatsedge (Ci) [14]; [18]): 5
CC(=O)c1cc(-c2ccc(C(F)(F)F)n(C)c2=O)c(F)cc1Cl [Compound 1-190]	–	–	–	–	–	–	5	5	5	–	–	–	–	–	–	5	5	5	5	5	Herbicidal effects Am (slender amaranth (Am) [1]; [17]): 5; Herbicidal effects Di (Diaitaria ciliaris (Di); [17]): 5; Herbicidal effects Ec (barnyardgrass (Ec) [2]; [17]): 5; Herbicidal effects Po (pale smartweed (Po) [3]; [17]): 5; Herbicidal effects Ch [4, 17]: 5; Herbicidal effects Ci (rice flatsedge (Ci) [5]; [17]): 5; Herbicidal effects Ci (rice flatsedge (Ci) [14]; [18]): 5
